Assay results taken from patent publication US11717549B2, “Steviol glycoside solubility enhancers” (CARGILL, INCORPORATED, priority 2017, dated 2023).
Like-named read-outs stand apart in the source and are kept apart here.

Assays:
[1] = Observation for solubility / precipitation of acid and steviol glycoside samples in water (Example I); conditions: 0.3% steviol glycoside; 5:1 and 2:1 molar ratio of pamoic acid to steviol glycoside; pH not adjusted
[2] = Instantaneous solubility: vigorously mixed with water at room temperature (25° C.); type: physicochemical; conditions: in water at room temperature, absence of compounds that enhance solubility
From the text: (§1) The composition can optionally be expressed in terms of the concentration of one or more steviol glycoside(s). […] Clear solutions without precipitates are considered soluble. Unless indicated otherwise herein, the term “solubility” refers to “equilibrium solubility.”

[3] = Equilibrium solubility: mixed with deionized water at 80° C. for 15 minutes, cooled to room temperature, observed at least four days; type: physicochemical; conditions: after heating to 80° C. for 15 minutes
From the text: as §1

[4] = cited from earlier work
[5] = in beverage formulations; cited from earlier work

## pamoic acid
[1]
  solubility of sample (conclusion): not initially soluble and remained insoluble at least after 1 day

## C=C1C[C@@]23CC[C@H]4[C@@](C)(CCC[C@@]4(C)C(=O)O[C@@H]4O[C@H](CO)[C@@H](O)[C@H](O)[C@H]4O[C@@H]4O[C@H](CO)[C@@H](O)[C@H](O)[C@H]4O)[C@@H]2CC[C@]1(O[C@@H]1O[C@H](CO)[C@@H](O)[C@H](O[C@@H]2O[C@H](CO)[C@@H](O)[C@H](O)[C@H]2O)[C@H]1O[C@@H]1O[C@H](CO)[C@@H](O)[C@H](O)[C@H]1O)C3 [Rebaudioside D, rebaudioside D]
[2]
  instantaneous solubility: less than 0.08%
[3]
  equilibrium solubility: 0.08%

## O=C(O)c1ccc([N+](=O)[O-])cc1[N+](=O)[O-] [2,4-dinitrobenzoic acid]
[4]; temperature 25 ° C.
  solubility (ppm): 1.79E+04 ppm

## O=C(O)c1cc(C(=O)O)cc(C(=O)O)c1 [1,3,5-benzenetricarboxylic acid]
[4]; temperature 16 ° C.
  solubility (ppm): 3.79E+03 ppm

## N[C@@H](CSCSC[C@H](N)C(=O)O)C(=O)O [djenkolic acid]
[4]; temperature 100 ° C.
  solubility (ppm): 4.98E+03 ppm

## CCCCC(C)(C)C(=O)O [2,2-dimethylhexanoic acid]
[4]; temperature 25 ° C.
  solubility (ppm): 3.44E+03 ppm

## O=C(O)c1ccccc1[N+](=O)[O-] [o-nitrobenzoic acid]
[4]; temperature 25 ° C.
  solubility (ppm): 7.44E+03 ppm

## Nc1ccc2cc(S(=O)(=O)O)cc(O)c2c1 [6-amino-4-hydroxy-2-naphthalenesulfonic acid]
[4]; temperature not given
  solubility (ppm): 4.48E+03 ppm

## CC1=NN(c2ccc([N+](=O)[O-])cc2)C(=O)C1[N+](=O)[O-] (centres unmarked) [picrolonic acid]
[4]; temperature 17 ° C.
  solubility (ppm): 8.92E+03 ppm

## COc1ccccc1C(=O)O [2-methoxybenzoic acid]
[4]; temperature 25 ° C.
  solubility (ppm): 4.18E+03 ppm

## Cc1cc(S(=O)(=O)O)ccc1N [4-amino-3-methylbenzene sulfonic acid]
[4]; temperature 20 ° C.
  solubility (ppm): 4.98E+03 ppm

## CCCC=C(C)CC(=O)O [3-methyl-3-heptenoic acid]
[4]; temperature 25 ° C.
  solubility (ppm): 4.64E+03 ppm

## CC(CCCCCC(=O)O)CC(=O)O (centres unmarked) [3-methylnonanedioic acid]
[4]; temperature 25 ° C.
  solubility (ppm): 5.53E+03 ppm

## CCCC(=CC(=O)O)CC [3-ethyl-2-hexenoic acid]
[4]; temperature 25 ° C.
  solubility (ppm): 6.06E+03 ppm

## O=C(O)c1c(Br)cc(Br)cc1Br [2,4,6-tribromobenzoic acid]
[4]; temperature 15 ° C.
  solubility (ppm): 3.49E+03 ppm

## CC(C)C=CCCC(=O)O [6-methyl-4-heptenoic acid]
[4]; temperature 25 ° C.
  solubility (ppm): 4.64E+03 ppm

## C=CCC1(CC)C(=O)NC(=O)NC1=O [5-allyl-5-ethylbarbituric acid]
[4]; temperature 25 ° C.
  solubility (ppm): 4.75E+03 ppm

## O=C(O)c1c(Cl)cccc1Cl [2,6-dichlorobenzoic acid]
[4]; temperature not given
  solubility (ppm): 1.39E+04 ppm

## CN(CCO)C(=O)COC(=O)c1ccccc1O [benzoic acid, 2-hydroxy-, 2-[(2-hydroxyethyl)methylamino]-2-oxoethyl ester]
[4]; temperature 21 ° C.
  solubility (ppm): 6.26E+03 ppm

## O=C(O)c1cccc(C(=O)O)c1O [2-hydroxyisophthalic acid]
[4]; temperature 100 ° C.
  solubility (ppm): 2.57E+04 ppm

## O=C(O)c1ccc(O)cc1O [2,4-dihydroxybenzoic acid]
[4]; temperature 25 ° C.
  solubility (ppm): 5.96E+03 ppm

## Cc1ccc(N)cc1S(=O)(=O)O [4-amino-o-toluenesulfonic acid]
[4]; temperature 20 ° C.
  solubility (ppm): 4.48E+03 ppm

## O=C(O)c1cc(C(=O)O)c(C(=O)O)cc1C(=O)O [pyromellitic acid]
[4]; temperature 16 ° C.
  solubility (ppm): 1.40E+04 ppm

## O=C(O)c1cc(=O)cc(C(=O)O)o1 [4-oxo-4H-pyran-2,6-dicarboxylic acid]
[4]; temperature 25 ° C.
  solubility (ppm): 1.41E+04 ppm

## O=C(O)c1ccc(O)cc1 [p-hydroxybenzoic acid]
[4]; temperature 25 ° C.
  solubility (ppm): 6.36E+03 ppm

## O=C(O)[C@@H](O)c1ccccc1 [alpha-hydroxybenzeneacetic acid, (S)]
[4]; temperature 25 ° C.
  solubility (ppm): 9.26E+04 ppm

## CCC=C(C)CCC(=O)O [4-methyl-4-heptenoic acid]
[4]; temperature 25 ° C.
  solubility (ppm): 4.64E+03 ppm

## Cc1ccc(C(=O)O)c(O)c1 [2-hydroxy-4-methylbenzoic acid]
[4]; temperature 100 ° C.
  solubility (ppm): 1.00E+04 ppm

## O=C(O)c1c(O)cccc1O [2,6-dihydroxybenzoic acid]
[4]; temperature not given
  solubility (ppm): 9.47E+03 ppm

## O=C1c2cccc(S(=O)O)c2C(=O)c2c1cccc2S(=O)O [1,8-anthraquinonedisulfinic acid]
[4]; temperature 18 ° C.
  solubility (ppm): 2.86E+05 ppm

## Nc1ccccc1C(=O)O [aniline-2-carboxylic acid]
[4]; temperature 20 ° C.
  solubility (ppm): 3.48E+03 ppm

## CC=CCCCC(=O)O [5-heptenoic acid]
[4]; temperature 25 ° C.
  solubility (ppm): 6.79E+03 ppm

## O=C1NC(=O)C2(CCC2)C(=O)N1 [5,5-trimethylenebarbituric acid]
[4]; temperature 25 ° C.
  solubility (ppm): 3.71E+03 ppm

## CCCCC(C)C(=O)O (racemic) [2-methylhexanoic acid]
[4]; temperature 25 ° C.
  solubility (ppm): 6.07E+03 ppm

## C=C1C[C@@]23CC[C@H]4[C@@](C)(CCC[C@@]4(C)C(=O)O[C@@H]4O[C@H](CO)[C@@H](O)[C@H](O[C@@H]5O[C@H](CO)[C@@H](O)[C@H](O)[C@H]5O)[C@H]4O[C@@H]4O[C@H](CO)[C@@H](O)[C@H](O)[C@H]4O)[C@@H]2CC[C@]1(O[C@@H]1O[C@H](CO)[C@@H](O)[C@H](O[C@@H]2O[C@H](CO)[C@@H](O)[C@H](O)[C@H]2O)[C@H]1O[C@@H]1O[C@H](CO)[C@@H](O)[C@H](O)[C@H]1O)C3 [Rebaudioside M, rebaudioside M]
[5]
  aqueous solubility and dissolution qualities: poor aqueous solubility
[2]
  instantaneous solubility: about 0.13%
[3]
  equilibrium solubility: about 0.2%

## O=C(O)CCc1ccccc1 [benzenepropanoic acid]
[4]; temperature 20 ° C.
  solubility (ppm): 5.87E+03 ppm

## O=C(O)C(=O)c1ccccc1 [alpha-oxobenzeneacetic acid]
[4]; temperature 0 ° C.
  solubility (ppm): 4.79E+05 ppm

## CCCCC=C(C)C(=O)O [2-methyl-2-heptenoic acid]
[4]; temperature 25 ° C.
  solubility (ppm): 4.64E+03 ppm
